Data: patent US20260028326A1, “COMPOUND BASED ON ISOINDOLINE-SUBSTITUTED GLUTARIMIDE BACKBONE AND USE THEREOF” (GLUETACS THERAPEUTICS (SHANGHAI) CO., LTD., priority 2022, published 2026)

The molecules below were run against human Cereblon WT GST-tagged protein (Homo sapiens (Human), UniProt Q96SW2) (assay: CRBN-binding affinity, HTRF (CEREBLON BINDING kit)).
Procedure, shortened: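 HTRF competition readout: compounds compete with a thalidomide-Re conjugate for GST-tagged wild-type human CRBN detected via Eu-labelled anti-GST antibody. Inhibition rate derived relative to protein-free blank wells.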

human Cereblon WT GST-tagged protein, sequence (Q96SW2 whole entry): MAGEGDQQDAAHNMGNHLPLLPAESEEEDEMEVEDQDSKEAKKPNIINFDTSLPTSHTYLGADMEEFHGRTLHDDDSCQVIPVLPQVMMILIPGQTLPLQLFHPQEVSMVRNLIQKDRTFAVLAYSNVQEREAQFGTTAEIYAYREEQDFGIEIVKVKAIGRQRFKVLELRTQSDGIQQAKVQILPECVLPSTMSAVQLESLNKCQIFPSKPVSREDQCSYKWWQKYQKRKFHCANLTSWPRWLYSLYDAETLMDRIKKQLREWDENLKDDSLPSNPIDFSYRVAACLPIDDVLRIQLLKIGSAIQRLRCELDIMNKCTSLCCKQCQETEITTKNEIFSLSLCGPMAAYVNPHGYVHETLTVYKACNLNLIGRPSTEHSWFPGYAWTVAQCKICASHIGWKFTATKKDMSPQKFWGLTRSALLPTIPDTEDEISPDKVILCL

Row | Compound | IC50 [nM]
1 | O=C1CCC(N2Cc3cc(CN4CCN(C(=O)c5ccncc5-c5ccc(Cl)cc5)CC4)ccc3C2=O)C(=O)N1 (centres unmarked) [GT-04222, 3-(5-((4-(3-(4-chlorophenyl)isonicotinoyl)piperazin-1-yl)methyl)-1-oxoisoindolin-2-yl)piperidine-2,6-dione] | 560
2 | O=C1CCC(N2Cc3cc(CN4C5CC4CN(Cc4ccccc4-c4ccc(Cl)cc4)C5)c(F)cc3C2=O)C(=O)N1 (centres unmarked) [GT-05609, 3-(5-((3-((4′-chloro-[1,1′-biphenyl]-2-yl)methyl)-3,6-diazabicyclo[3.1.1]heptan-6-yl)methyl)-6-fluoro-1-oxoisoindolin-2-yl)piperidine-2,6-dione] | 540
3 | CC1(C)CCC(CN2C3CCC2CN(c2ccc4c(c2)CN(C2CCC(=O)NC2=O)C4=O)C3)=C(c2ccc(Cl)cc2)C1 (centres unmarked) [GT-05429, 3-(5-(8-((4′-chloro-5,5-dimethyl-3,4,5,6-tetrahydro-[1,1′-biphenyl]-2-yl)methyl)-3,8-diazabicyclo[3.2.1]octan-3-yl)-1-oxoisoindolin-2-yl)piperidine-2,6-dione] | 1490
4 | O=C1CCC(N2Cc3cc(CN4C5CC4CN(C(=O)c4ccccc4-c4ccc(Cl)cc4)C5)cc(F)c3C2=O)C(=O)N1 (centres unmarked) [GT-05668, 3-(5-((3-(4′-chloro-[1,1′-biphenyl]-2-carbonyl)-3,6-diazabicyclo[3.1.1]heptan-6-yl)methyl)-7-fluoro-1-oxoisoindolin-2-yl)piperidine-2,6-dione] | 650
5 | CC1(C)CCC(CN2CC3CCC(C2)N3C(=O)c2ccc3c(c2)CN(C2CCC(=O)NC2=O)C3=O)=C(c2ccc(F)cc2)C1 (centres unmarked) [GT-05451, 3-(5-(3-((4′-fluoro-5,5-dimethyl-3,4,5,6-tetrahydro-[1,1′-biphenyl]-2-yl)methyl)-3,8-diazabicyclo[3.2.1]octane-8-carbonyl)-1-oxoisoindolin-2-yl)piperidine-2,6-dione] | 1160
6 | O=C1CCC(N2Cc3ccc(CN4CCN(C(=O)C5=C(c6ccc(F)cc6)CCCC5)CC4)cc3C2=O)C(=O)N1 (centres unmarked) [GT-05470, 3-(6-((4-(4′-fluoro-3,4,5,6-tetrahydro-[1,1′-biphenyl]-2-carbonyl)piperazin-1-yl)methyl)-1-oxoisoindolin-2-yl)piperidine-2,6-dione] | 980
7 | O=C1CCC(N2Cc3cc(CN4C5CC4CN(C(=O)C4=C(c6ccc(F)cc6)CCCC4)C5)c(F)cc3C2=O)C(=O)N1 (centres unmarked) [GT-05476, 3-(6-fluoro-5-((3-(4′-fluoro-3,4,5,6-tetrahydro-[1,1′-biphenyl]-2-carbonyl)-3,6-diazabicyclo[3.1.1]heptan-6-yl)methyl)-1-oxoisoindolin-2-yl)piperidine-2,6-dione] | 1200

The remaining lines, values ahead:

Row | IC50 [nM] | Compound
8 | 1010 | O=C1CCC(N2Cc3cc(CN4CCN(C(=O)C5=C(c6ccc(F)cc6)CCCC5)CC4)ccc3C2=O)C(=O)N1 (centres unmarked) [GT-04170, 3-(5-((4-(4′-fluoro-3,4,5,6-tetrahydro-[1,1′-biphenyl]-2-carbonyl)piperazin-1-yl)methyl)-1-oxoisoindolin-2-yl)piperidine-2,6-dione]
9 | 1050 | O=C1CCC(N2Cc3c(CN4CCN(Cc5ccccc5-c5ccc(F)cc5)CC4)cccc3C2=O)C(=O)N1 (centres unmarked) [GT-05605, 3-(4-((4-((4′-fluoro-[1,1′-biphenyl]-2-yl)methyl)piperazin-1-yl)methyl)-1-oxoisoindolin-2-yl)piperidine-2,6-dione]
10 | 1440 | CC1(C)CCC(CN2CCN(C(=O)c3ccc4c(c3)C(=O)N(C3CCC(=O)NC3=O)C4=O)CC2)=C(c2ccc(Cl)cc2)C1 (centres unmarked) [GT-05366, 5-(4-((4′-chloro-5,5-dimethyl-3,4,5,6-tetrahydro-[1,1′-biphenyl]-2-yl)methyl)piperazine-1-carbonyl)-2-(2,6-dioxopiperidin-3-yl)isoindoline-1,3-dione]
11 | 830 | O=C1CCC(N2Cc3ccc(CN4CCN(CC5=C(c6ccc(F)cc6)CCCC5)CC4)cc3C2=O)C(=O)N1 (centres unmarked) [GT-05465, 3-(6-((4-((4′-fluoro-3,4,5,6-tetrahydro-[1,1′-biphenyl]-2-yl)methyl)piperazin-1-yl)methyl)-1-oxoisoindolin-2-yl)piperidine-2,6-dione]
